We go through twelve molecules from PubChem BioAssay (NCI).

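Assay format: 96-well plates, 48-hour exposure. TGI: concentration producing complete growth inhibition.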 Where a SMILES comes first, the peptide text is derived from it. The star is where a group is joined. Boc = CC(C)(C)OC(=O)*; OtBu = CC(C)(C)O* Some results are limits rather than exact numbers.

Some test systems named below: 786-0 renal; DU-145 prostate; HOP-62 NSCLC; IGROV1 ovarian; MALME-3M melanoma; NCI-H226 lung; RPMI-8226 leukemia; SF-268 CNS; SF-295 CNS; SK-MEL-28 melanoma; SNB-75 CNS.
Test in all cases: NCI-60 cell line screen, 48 h

Turning to `CC(C)(C)OC(=O)CC(NC(=O)OC(C)(C)C)C(=O)NC(Cc1ccccc1)C(N)=O` (configuration not stated) (Boc-Asp(OtBu)-Phe-NH2; configuration not given here), the TGI in the experiment with 786-0 renal, in the experiment with DU-145 prostate, with HOP-62 NSCLC, with IGROV1 ovarian, with MALME-3M melanoma and in the experiment on NCI-H226 lung was above 100 µM in each case. Also, the TGI in the experiment with RPMI-8226 leukemia, in the experiment with SF-268 CNS, in the experiment on SF-295 CNS, in the experiment on SK-MEL-28 melanoma and in the experiment with SNB-75 CNS was above 100 µM throughout.

Consider `COC(=O)c1c(C(=O)OC)c2ccccn2c1-c1cc(C)cc2c1C(=O)C=CC2=O`, for which the TGI turned out to be 11.3 µM in the experiment on 786-0 renal; 20.1 µM with DU-145 prostate; 21.7 µM in the experiment on HOP-62 NSCLC; 17.3 µM with IGROV1 ovarian; 15 µM in the experiment with MALME-3M melanoma; 19.7 µM in the experiment on NCI-H226 lung. Also, the TGI in the experiment with RPMI-8226 leukemia was 8.9 µM; in the experiment on SF-268 CNS, 20.8 µM; in the experiment with SF-295 CNS it was 18 µM; with SK-MEL-28 melanoma, 17.9 µM; in the experiment on SNB-75 CNS it was 23.6 µM.

`CC(=O)OC1=C(c2ccccc2)S(=O)(=O)c2ccccc21`: the TGI in the experiment with 786-0 renal, in the experiment on DU-145 prostate, in the experiment on HOP-62 NSCLC, in the experiment with IGROV1 ovarian, in the experiment on MALME-3M melanoma and in the experiment with NCI-H226 lung was above 100 µM in each case. Besides, the TGI in the experiment on RPMI-8226 leukemia, in the experiment on SF-268 CNS, with SF-295 CNS, in the experiment with SK-MEL-28 melanoma and in the experiment with SNB-75 CNS was above 100 µM in each case.

`C[C@H]1CC(=O)C[C@@H]2CC[C@@H]3[C@H](CC[C@]4(C)C(OC(=O)c5cccc6c(=O)c7ccccc7[nH]c56)CC[C@@H]34)[C@]21C` (some centres not stated): the TGI in the experiment on 786-0 renal, in the experiment on DU-145 prostate, with HOP-62 NSCLC, in the experiment on IGROV1 ovarian, with MALME-3M melanoma and with NCI-H226 lung was above 100 µM each time. Besides, the TGI is 55.6 µM in the experiment on RPMI-8226 leukemia; above 100 µM in the experiment on SF-268 CNS; above 100 µM in the experiment with SF-295 CNS; above 100 µM with SK-MEL-28 melanoma; 92.8 µM in the experiment on SNB-75 CNS.

For `CC(=O)O[C@H]1CC[C@@]2(C)C(=CC[C@@H]3[C@@H]2CC[C@]2(C)C(=O)/C(=C\c4ccccc4)C[C@@H]32)C1`, the TGI in the experiment with 786-0 renal, in the experiment with DU-145 prostate, with HOP-62 NSCLC, in the experiment with IGROV1 ovarian, in the experiment on MALME-3M melanoma and with NCI-H226 lung was above 100 µM each time. Moreover, the TGI with RPMI-8226 leukemia, in the experiment on SF-268 CNS, in the experiment with SF-295 CNS, in the experiment with SK-MEL-28 melanoma and in the experiment with SNB-75 CNS was above 100 µM throughout.

For the molecule `NC(C(=O)O)C(O)c1cnc[nH]1` (configuration not stated), the TGI with 786-0 renal, with DU-145 prostate, in the experiment with HOP-62 NSCLC, in the experiment with IGROV1 ovarian, in the experiment with MALME-3M melanoma and in the experiment on NCI-H226 lung was above 100 µM each time. Besides, the TGI in the experiment on RPMI-8226 leukemia, in the experiment on SF-268 CNS, in the experiment on SF-295 CNS, in the experiment with SK-MEL-28 melanoma and in the experiment with SNB-75 CNS was above 100 µM each time.

Turning to `C[C@@H](NC(=O)Nc1cccc(C(=O)Nc2cc(C(C)(C)C)ccc2C(=O)O)n1)c1ccccc1`, the TGI in the experiment on 786-0 renal was above 100 µM; with DU-145 prostate, above 100 µM; with HOP-62 NSCLC, 86.1 µM; in the experiment on IGROV1 ovarian, above 100 µM; in the experiment with MALME-3M melanoma, above 100 µM; with NCI-H226 lung it was above 100 µM. Also, the TGI is above 100 µM with RPMI-8226 leukemia; above 100 µM with SF-268 CNS; 76.2 µM with SF-295 CNS; above 100 µM in the experiment on SK-MEL-28 melanoma; above 100 µM in the experiment with SNB-75 CNS.

As for `CN(C)CCC(C#N)(c1ccccc1)c1ccccc1`, the TGI in the experiment with 786-0 renal, in the experiment with DU-145 prostate, with HOP-62 NSCLC, with IGROV1 ovarian, with MALME-3M melanoma and in the experiment with NCI-H226 lung was above 100 µM in each case. Besides, the TGI was 80.5 µM in the experiment on RPMI-8226 leukemia; above 100 µM in the experiment on SF-268 CNS; above 100 µM in the experiment on SF-295 CNS; 58.4 µM in the experiment on SK-MEL-28 melanoma; above 100 µM in the experiment with SNB-75 CNS.

Consider `COCc1nc(C#N)c(N)o1`, for which the TGI in the experiment with 786-0 renal, in the experiment on DU-145 prostate, with HOP-62 NSCLC, in the experiment on IGROV1 ovarian, in the experiment on MALME-3M melanoma and with NCI-H226 lung was above 10 µM each time. Moreover, the TGI in the experiment with RPMI-8226 leukemia, in the experiment on SF-268 CNS, in the experiment with SF-295 CNS, in the experiment with SK-MEL-28 melanoma and in the experiment on SNB-75 CNS was above 10 µM each time.

For the molecule `O=C(NNC(=O)c1cc2ccccc2[nH]1)c1cc2ccccc2[nH]1`, the TGI in the experiment on 786-0 renal, in the experiment with DU-145 prostate, in the experiment on HOP-62 NSCLC, with IGROV1 ovarian, in the experiment with MALME-3M melanoma and in the experiment with NCI-H226 lung was above 100 µM each time. The TGI in the experiment with RPMI-8226 leukemia, with SF-268 CNS, in the experiment on SF-295 CNS, in the experiment on SK-MEL-28 melanoma and in the experiment on SNB-75 CNS was above 100 µM each time.

Take `COc1cc(OC)cc(Oc2nc3ccc(C(F)(F)F)cc3nc2-c2ccccc2)c1`: the TGI with 786-0 renal, in the experiment on DU-145 prostate, with HOP-62 NSCLC, in the experiment with IGROV1 ovarian, in the experiment with MALME-3M melanoma and with NCI-H226 lung was above 100 µM each time. Moreover, the TGI with RPMI-8226 leukemia, in the experiment with SF-268 CNS, with SF-295 CNS, in the experiment with SK-MEL-28 melanoma and in the experiment with SNB-75 CNS was above 100 µM in each case.

Turning to `CC(C)C1CC(CO)(CNc2nc(N)nc(Cl)c2C=O)C1` (configuration not stated), the TGI in the experiment on 786-0 renal was above 100 µM; in the experiment on DU-145 prostate, 29.1 µM; in the experiment with HOP-62 NSCLC it was 37 µM; with IGROV1 ovarian, 3.52 µM; in the experiment on MALME-3M melanoma it was 44.3 µM; with NCI-H226 lung, 26.3 µM. Further, the TGI was above 100 µM with RPMI-8226 leukemia; above 23.7 µM in the experiment on SF-268 CNS; 44.4 µM in the experiment with SF-295 CNS; 3.62 µM in the experiment with SK-MEL-28 melanoma; 15.4 µM in the experiment on SNB-75 CNS.
